Molecule | cytocompatibility (cell enumeration, metabolism, toxicity) (RAW 264.7 macrophages) | cytocompatibility (cell enumeration, metabolism, toxicity) (NIH-3T3 fibroblasts) | maximal inhibitory concentration (RAW 264.7 macrophages) | maximal inhibitory concentration (NIH-3T3 fibroblasts)
hyaluronic acid [HA] | cytocompatible | cytocompatible |  | 
O.O.O.O.O.O.[Cl-].[Cl-].[Co+2] [CoCl2.6H2O] |  |  | ~50 µg/mL | ~25 µg/mL

Source: patent US11479617B2, “Chelator-functionalized glycosaminoglycans” (priority 2018, dated 2022)
